According to patent US7449495B2, “Retinoid derivatives with antiangiogenic, antitumoral and proapoptotic activities” (Sigma-Tau Industrie Farmaceutiche Riunite S.p.A., priority 2001, dated 2008):

Experiments:
[1] = test system: BMEC cells; experiment: Endothelial BMEC cells chemotaxis (Boyden chamber); assay type: cell-based, bovine; conditions: 50 and 25 μM
Procedure: The capacity of ST1879 to inhibit cellular migration through the polycarbonate filter in the direction of the chemoattractant factor, was quantitatively evaluated by counting the number of cells present on the lower side of the filter. The percentages of migration reported in table 8 were calculated according to the formula: (treated−control/control)×100.

[2] = test system: Human ovarian carcinoma IGROV-1; experiment: Cytotoxicity test (sulphorodamine B), IGROV-1; assay type: cell-based; conditions: 24 h incubation, survival 48 h after removal
Source text: (§1) Different cell lines deriving from solid tumors were also used. • 1. Human prostate carcinoma PC3 and DU145. These cell lines were maintained in RPMI 1640 medium containing 10% FCS, 1% sodium pyruvate and 1% glutamine; • 2. Human colon adenocarcinoma LoVo. This cell line was maintained in HAM's F-12 medium, containing 10% FCS and 1% glutamine. • 3. Human ovarian carcinoma such as A2780 and A2780/Dx, sensitive and resistant to drugs, respectively (doxorubicin, taxol, etoposide, vincristine); IGROV-1 and IGROV-1/Pt, sensitive and resistant to platinum-based chemotherapy, respectively, were maintained in RPMI 1640 medium containing 10% FCS, 1% sodium pyruvate and 1% glutamine; • 4. Human melanoma MeWo and MeS 2.21, glioblastoma GBM, no small cell lung carcinomas A431, NCI—H460, osteosarcomas SAOS and U2OS were maintained in RPMI 1640 medium containing 10% FCS, 1% sodium pyruvate and 1% glutamine.
(§2) The cytotoxicity tests were carried out using NB4 or HL-60 cells in suspension (10000/well). The cells were seeded in a volume of 250 μl in 96 well plates and incubated for 24 hours at 37° C. […] The optical density was measured using a Multiskan spectrophotometer at 540 nm. […]
(§3) Cell survival was determined by incubation with ST1926 for 24 hours, 48 hours after the removal of the compound. […]

[3] = test system: Human melanoma MeS 2.21; experiment: Cytotoxicity test (sulphorodamine B), MeS 2.21; assay type: cell-based; conditions: 24 h incubation, survival 48 h after removal
Source text: as §1, §2, §3

[4] = test system: Human ovarian carcinoma A2780; experiment: Cytotoxicity test (sulphorodamine B), A2780; assay type: cell-based; conditions: 24 h incubation, survival 48 h after removal
Source text: as §1, §2, §3

[5] = test system: 3LL murine Lewis lung carcinoma; experiment: Antitumoral activity in murine Lewis lung carcinoma model 3LL; assay type: in vivo, C57BL/6J mice; conditions: 10 mg/kg po, qdx5x3w
Procedure: Murine pulmonary adenocarcinoma Madison 109 cells (M109) were maintained by s.c. passage of tumor fragments. The day of inoculation, the cell suspension was injected i.m. in the rear left limb of a 20 g male BALB/c mouse at a density of 3×10^5 cells/mouse. 3LL murine Lewis lung carcinoma was routinely maintained by i.m. passages (every 10-14 days) of 1×10^5 cells/mouse in C57BL/6J mice. For antitumor activity experiments, tumors were excised from donor mice and after mechanical desegregation and enzymatic digestion tumor cell viability was assessed by the trypan blue dye exclusion test. Then, 1×10^5 cells/100 μl/mouse were injected i.m. into the right hind leg muscle of C57BL/6J mice.
Tumor dimension measurements were performed using a digital calliper (Vernier Caliper) from the day in which the mass became measurable, twice weekly. The tumor mass was assessed from the size of the two principal dimensions (length and breadth), expressed in mm, applying the formula (length×breadth^2)/2 that is, the tumor volume in mm3. For every experimental group the percentage of inhibition of tumor volume (TVI %) was calculated, with respect to that of the control that is (100−(T/C %). TVI was evaluated 2 days after the final administration of ST1926.
The mean survival time (MST) was also measured and the increase in mean life-span expressed as ILS % (increase of life span) calculated as (MSTT/MSTC)×100−100.
The comparison between the values of TVI and of survival time, obtained for each group were performed with the non parametric Mann Whitney test for non paired data, using the Instat software from GraphPad inc. […]
The mice (8 for each group) were weighed prior to each treatment, firstly, so as to be able to administer the correct quantity of substance, based on the eventual variations in weight observed throughout the period of drug administration, and also to be able to register the maximum weight loss throughout the treatment (BWL % max).

[6] = test system: Human colon adenocarcinoma LoVo; experiment: Cytotoxicity test (sulphorodamine B), LoVo; assay type: cell-based; conditions: 24 h incubation, survival 48 h after removal, read-out: IC50
Source text: as §1, §2, §3

Q: With `O=C(O)/C=C/c1ccc(-c2ccc(O)c(C34CC5CC(CC(C5)C3)C4)c2)cc1` [ST1926, E-4-(3-(1-adamantyl)-4-hydroxyphenyl)cinnamic acid] as the compound, how does the “chemotaxis of the BMEC cells towards FCS (in words)” value [1] read?
A: inhibition of chemotaxis

Q: And the IC50 [2]?
A: 230 nM

Q: What about the IC50 [3] of the same compound?
A: 230 nM

Q: What about the IC50 [4] of the same compound?
A: 100 nM

Q: And the “BWL % Max” value [5]?
A: 7%

Q: And the ILS % [5]?
A: 52%

Q: What about the “MST (range days)” value [5] of the same compound?
A: *32 (24-42) days

Q: And the IC50 [6]?
A: 240 nM
